# Laboratory results reported in article PMC12173503, “Enterohaemorrhagic Escherichia coli AdhE spirosome length correlates with enzymatic directionality and is perturbed by salicylidene acylhydrazides” (Open Biology, 2025).
# Key:
# AdhE (6-His-AdhE) [1] = molecular target: T1, AdhE (6-His-AdhE) (Escherichia coli, UniProt P0A9Q7); test: NADH consumption at […] nm; format: biochemical; parameters: full-length AdhE, N-terminal 6-His tag kept, pET28a, expressed in E. coli BL21(DE3); spirosome oligomers, SEC fractions F12 (long) and F24 (short); settings: forward reaction; 200 μM acetyl-CoA, 250 μM NADH, 20 μM FeSO4, 250 mM NaCl, 50 mM Tris-HCl pH 8.0, 37 °C
# AdhE (6-His-AdhE) [2] = molecular target: T1, AdhE (6-His-AdhE); settings: reverse reaction; 200 mM ethanol, 500 μM NAD+, 200 μM CoASH, 20 μM FeSO4, 250 mM NaCl, 50 mM Tris-HCl pH 8.0, 37 °C
# T1 sequence (P0A9Q7 whole entry): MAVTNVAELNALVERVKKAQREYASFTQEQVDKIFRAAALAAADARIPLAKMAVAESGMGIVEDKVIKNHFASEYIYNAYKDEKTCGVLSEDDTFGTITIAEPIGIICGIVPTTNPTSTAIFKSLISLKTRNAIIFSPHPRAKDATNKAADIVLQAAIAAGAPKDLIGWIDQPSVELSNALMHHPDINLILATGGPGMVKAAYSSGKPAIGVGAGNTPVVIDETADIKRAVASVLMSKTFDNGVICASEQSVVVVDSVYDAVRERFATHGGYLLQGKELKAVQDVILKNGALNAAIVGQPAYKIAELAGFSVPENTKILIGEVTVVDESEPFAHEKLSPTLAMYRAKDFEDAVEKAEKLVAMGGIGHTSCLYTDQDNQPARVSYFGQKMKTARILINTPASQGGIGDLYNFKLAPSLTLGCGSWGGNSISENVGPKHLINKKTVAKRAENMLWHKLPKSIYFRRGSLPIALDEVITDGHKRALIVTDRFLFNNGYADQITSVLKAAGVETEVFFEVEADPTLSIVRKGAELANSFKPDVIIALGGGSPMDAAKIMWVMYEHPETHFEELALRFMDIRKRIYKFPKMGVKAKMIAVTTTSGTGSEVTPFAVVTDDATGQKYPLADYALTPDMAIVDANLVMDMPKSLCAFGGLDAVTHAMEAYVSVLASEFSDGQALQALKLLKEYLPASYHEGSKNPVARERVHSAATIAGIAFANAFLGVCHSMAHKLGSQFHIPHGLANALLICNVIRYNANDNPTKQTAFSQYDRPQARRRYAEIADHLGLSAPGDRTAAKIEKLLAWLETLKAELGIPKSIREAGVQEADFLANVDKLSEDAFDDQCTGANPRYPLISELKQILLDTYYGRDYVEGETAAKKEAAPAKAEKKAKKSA
SMILES,NADH consumption at 340 nm (AdhE (6-His-AdhE) [1]),NADH production at 340 nm (AdhE (6-His-AdhE) [2])
CC(=O)SCCNC(=O)CCNC(=O)[C@H](O)C(C)(C)COP(=O)(O)OP(=O)(O)OC[C@H]1O[C@@H](n2cnc3c(N)ncnc32)[C@H](O)[C@@H]1OP(=O)(O)O [acetyl-CoA],F12 or F24 was incubated with acetyl-CoA in the presence of NADH,–
CCO [ethanol],–,"F12 or F24 was incubated with ethanol, NAD^+ and CoASH"
